Measured values from PubChem BioAssay AID1259407 (Chemical Carcinogenesis Research Information System (CCRIS), 2018).
Active and inactive are the calls of the source. The rule behind the calls is not given here.

System: CCRIS mutagenicity, Ames/micronucleus/aberration tests
Test: CCRIS mutagenicity studies
[1] = Test System: AMES SALMONELLA TYPHIMURIUM, Strain/Indicator: TA98, Metabolic Activation: NONE, Method: STANDARD PLATE
[2] = Test System: AMES SALMONELLA TYPHIMURIUM, Strain/Indicator: TA100, Metabolic Activation: NONE, Method: STANDARD PLATE
[3] = Test System: AMES SALMONELLA TYPHIMURIUM, Strain/Indicator: TA1537, Metabolic Activation: NONE, Method: STANDARD PLATE

O=C(O)C(Cl)Cl
mutagenic call (End Point: IN VITRO CHROMOSOMAL ABERRATIONS, Test System: CHL CELLS, Metabolic Activation: RAT, LIVER, S-9, SODIUM PHENOBARBITAL AND 5,6-BENZOFLAVONE): active; positive (structural changes)
mutagenic call (End Point: In vivo micronucleus, Test System: Normochromatic erythrocytes, Species: Mouse, Strain/Sex: B6C3F1/Male, Route: Oral): inactive; negative
mutagenic call (End Point: In vivo micronucleus, Test System: Peripheral blood normochromatic erythrocytes, Species: Mouse, Strain/Sex: B6C3F1/Female, Route: Oral): inactive; negative; increase in frequency of micronucleated erythrocytes was judged to be
mutagenic call (End Point: In vivo micronucleus, Test System: Peripheral blood normochromatic erythrocytes, Species: Mouse, Strain/Sex: B6.129-TRP53TM1 BRD/Female, Route: Oral): inactive; negative
mutagenic call (End Point: In vivo micronucleus, Test System: Peripheral blood normochromatic erythrocytes, Species: Mouse, Strain/Sex: B6.129-TRP53TM1 BRD/Male, Route: Oral): inactive; negative
mutagenic call (End Point: In vivo micronucleus, Test System: Peripheral blood normochromatic erythrocytes, Species: Mouse, Strain/Sex: FVB/N-TgN (v-Ha-ras)Led (Tg.AC) hemizygous/Female, Route: Dermal): inactive; negative
mutagenic call (End Point: In vivo micronucleus, Test System: Peripheral blood normochromatic erythrocytes, Species: Mouse, Strain/Sex: FVB/N-TgN (v-Ha-ras)Led (Tg.AC) hemizygous/Male, Route: Dermal): inactive; negative
mutagenic call (End Point: In vivo micronucleus, Test System: Peripheral blood normochromatic erythrocytes, Species: Mouse, Strain/Sex: Tg.AC hemizygous/Female, Route: Oral): inactive; negative
mutagenic call (End Point: In vivo micronucleus, Test System: Peripheral blood normochromatic erythrocytes, Species: Mouse, Strain/Sex: Tg.AC hemizygous/Male, Route: Oral): inactive; negative
mutagenic call (Test System: AMES SALMONELLA TYPHIMURIUM, Strain/Indicator: RSJ100, Metabolic Activation: NONE, Method: PREINCUBATION): active; positive
mutagenic call (Test System: AMES SALMONELLA TYPHIMURIUM, Strain/Indicator: RSJ100, Metabolic Activation: RAT LIVER S-9, Method: PREINCUBATION): inactive; negative
mutagenic call [1]: inactive; negative
mutagenic call (Test System: AMES SALMONELLA TYPHIMURIUM, Strain/Indicator: TA98, Metabolic Activation: RAT LIVER S-9, Method: PREINCUBATION): inactive; negative
mutagenic call (Test System: AMES SALMONELLA TYPHIMURIUM, Strain/Indicator: TA98, Metabolic Activation: RAT, LIVER, S-9, AROCLOR 1254, Method: STANDARD PLATE): inactive; negative
mutagenic call (Test System: AMES SALMONELLA TYPHIMURIUM, Strain/Indicator: TA98, Metabolic Activation: RAT, LIVER, S-9, PHENOBARBITAL AND 5,6-BENZOFLAVONE, Method: PREINCUBATION): inactive; negative
mutagenic call (Test System: AMES SALMONELLA TYPHIMURIUM, Strain/Indicator: TA100, Metabolic Activation: NONE, Method: BAG VAPORIZATION): active; positive
mutagenic call (Test System: AMES SALMONELLA TYPHIMURIUM, Strain/Indicator: TA100, Metabolic Activation: NONE, Method: FLUCTUATION TEST): active; positive
mutagenic call (Test System: AMES SALMONELLA TYPHIMURIUM, Strain/Indicator: TA100, Metabolic Activation: NONE, Method: PREINCUBATION): active; positive
mutagenic call [2]: inactive; negative
mutagenic call (Test System: AMES SALMONELLA TYPHIMURIUM, Strain/Indicator: TA100, Metabolic Activation: RAT LIVER S-9, Method: PREINCUBATION): active; positive
mutagenic call (Test System: AMES SALMONELLA TYPHIMURIUM, Strain/Indicator: TA100, Metabolic Activation: RAT, LIVER, S-9, AROCLOR 1254, Method: BAG VAPORIZATION): active; positive
mutagenic call (Test System: AMES SALMONELLA TYPHIMURIUM, Strain/Indicator: TA100, Metabolic Activation: RAT, LIVER, S-9, AROCLOR 1254, Method: FLUCTUATION TEST): active; positive
mutagenic call (Test System: AMES SALMONELLA TYPHIMURIUM, Strain/Indicator: TA100, Metabolic Activation: RAT, LIVER, S-9, AROCLOR 1254, Method: STANDARD PLATE): inactive; negative
mutagenic call (Test System: AMES SALMONELLA TYPHIMURIUM, Strain/Indicator: TA100, Metabolic Activation: RAT, LIVER, S-9, PHENOBARBITAL AND 5,6-BENZOFLAVONE, Method: PREINCUBATION): inactive; negative
mutagenic call (Test System: AMES SALMONELLA TYPHIMURIUM, Strain/Indicator: TA102, Metabolic Activation: NONE, Method: STANDARD PLATE): inactive; negative
mutagenic call (Test System: AMES SALMONELLA TYPHIMURIUM, Strain/Indicator: TA102, Metabolic Activation: RAT LIVER S-9, AROCLOR 1254, Method: STANDARD PLATE): inactive; negative
mutagenic call (Test System: AMES SALMONELLA TYPHIMURIUM, Strain/Indicator: TA102, Metabolic Activation: RAT, LIVER, S-9, PHENOBARBITAL AND 5,6-BENZOFLAVONE, Method: STANDARD PLATE): inactive; negative
mutagenic call (Test System: AMES SALMONELLA TYPHIMURIUM, Strain/Indicator: TA1535, Metabolic Activation: NONE, Method: STANDARD PLATE): inactive; negative
mutagenic call (Test System: AMES SALMONELLA TYPHIMURIUM, Strain/Indicator: TA1535, Metabolic Activation: RAT, LIVER, S-9, AROCLOR 1254, Method: STANDARD PLATE): inactive; negative
mutagenic call [3]: inactive; negative
mutagenic call (Test System: AMES SALMONELLA TYPHIMURIUM, Strain/Indicator: TA1537, Metabolic Activation: RAT, LIVER, S-9, AROCLOR 1254, Method: STANDARD PLATE): inactive; negative
mutagenic call (Test System: AMES SALMONELLA TYPHIMURIUM, Strain/Indicator: TA2638, Metabolic Activation: RAT, LIVER, S-9, PHENOBARBITAL AND 5,6-BENZOFLAVONE, Method: STANDARD PLATE): inactive; negative
mutagenic call (Test System: Ames Salmonella typhimurium, Strain/Indicator: TA98, Metabolic Activation: Hamster, liver, S-9, Aroclor 1254 (30%), Method: Preincubation): inactive; negative
mutagenic call (Test System: Ames Salmonella typhimurium, Strain/Indicator: TA98, Metabolic Activation: Hamster, liver, S-9, Aroclor 1254, 30%, Method: Preincubation): inactive; negative
mutagenic call (Test System: Ames Salmonella typhimurium, Strain/Indicator: TA98, Metabolic Activation: Rat, liver, S-9, Aroclor 1254, 30%, Method: Preincubation): inactive; negative
mutagenic call (Test System: Ames Salmonella typhimurium, Strain/Indicator: TA100, Metabolic Activation: Hamster, liver, S-9, Aroclor 125, 30%, Method: Preincubation): inactive; negative
mutagenic call (Test System: Ames Salmonella typhimurium, Strain/Indicator: TA100, Metabolic Activation: Hamster, liver, S-9, Aroclor 1254, 30%, Method: Preincubation): inactive; negative
mutagenic call (Test System: Ames Salmonella typhimurium, Strain/Indicator: TA100, Metabolic Activation: None, Method: Preincubation): active; positive
mutagenic call (Test System: Ames Salmonella typhimurium, Strain/Indicator: TA100, Metabolic Activation: Rat, liver, S-9, Aroclor 1254, 30%, Method: Preincubation): inactive; negative
mutagenic call (Test System: Ames Salmonella typhimurium, Strain/Indicator: TA1535, Metabolic Activation: None, Method: Preincubation): active; positive, three trials performed; ntp described results as positive, weakly posi
mutagenic call (Test System: E. COLI, Strain/Indicator: WP2 (PKM101), Metabolic Activation: RAT, LIVER, S-9, PHENOBARBITAL AND 5,6-BENZOFLAVONE, Method: STANDARD PLATE): inactive; negative
mutagenic call (Test System: E. COLI, Strain/Indicator: WP2 UVRA (PKM101), Metabolic Activation: RAT, LIVER, S-9, PHENOBARBITAL AND 5,6-BENZOFLAVONE, Method: STANDARD PLATE): inactive; negative
mutagenic call (Test System: E. COLI, Strain/Indicator: WP2 UVRA, Metabolic Activation: NONE, Method: STANDARD PLATE): inactive; negative
mutagenic call (Test System: E. COLI, Strain/Indicator: WP2 UVRA, Metabolic Activation: RAT, LIVER, S-9, AROCLOR 1254, Method: STANDARD PLATE): inactive; negative
mutagenic call (Test System: MOUSE LYMPHOMA, Strain/Indicator: L5178Y (TK+/TK- -3.7.2C), Metabolic Activation: NONE): active; positive
mutagenic call (Test System: MOUSE LYMPHOMA, Strain/Indicator: L5178Y (TK+/TK-), Metabolic Activation: NONE, Method: SUSPENSION/PLATE): inactive; negative
mutagenic call (Test System: MOUSE LYMPHOMA, Strain/Indicator: L5187Y (TK+/TK-), Metabolic Activation: RAT, LIVER, S-9, AROCLOR 1254, Method: SUSPENSION/PLATE): inactive; negative

Cc1c2ccncc2c(C)c2c1[nH]c1ccc(N)cc12
mutagenic call [1]: active; positive
mutagenic call (Test System: AMES SALMONELLA TYPHIMURIUM, Strain/Indicator: TA98, Metabolic Activation: RAT, LIVER, S-9, PHENOBARBITAL, Method: STANDARD PLATE): active; positive
mutagenic call [2]: inactive; negative
mutagenic call (Test System: AMES SALMONELLA TYPHIMURIUM, Strain/Indicator: TA100, Metabolic Activation: RAT, LIVER, S-9, PHENOBARBITAL, Method: STANDARD PLATE): inactive; negative
mutagenic call [3]: active; positive
mutagenic call (Test System: AMES SALMONELLA TYPHIMURIUM, Strain/Indicator: TA1537, Metabolic Activation: RAT, LIVER, S-9, PHENOBARBITAL, Method: STANDARD PLATE): active; positive
mutagenic call (Test System: AMES SALMONELLA TYPHIMURIUM, Strain/Indicator: TA1538, Metabolic Activation: NONE, Method: STANDARD PLATE): active; positive
mutagenic call (Test System: AMES SALMONELLA TYPHIMURIUM, Strain/Indicator: TA1538, Metabolic Activation: RAT, LIVER, S-9, PHENOBARBITAL, Method: STANDARD PLATE): active; positive

COC(=O)C1=CCCN(C)C1
mutagenic call [1]: inactive; negative
mutagenic call (Test System: AMES SALMONELLA TYPHIMURIUM, Strain/Indicator: TA98, Metabolic Activation: RAT, LIVER, S-9, Method: STANDARD PLATE): inactive; negative
mutagenic call [2]: active; positive
mutagenic call (Test System: AMES SALMONELLA TYPHIMURIUM, Strain/Indicator: TA100, Metabolic Activation: RAT, LIVER, S-9, Method: STANDARD PLATE): active; positive
